The assay concerns PBMCs from A*02:01 COVID-19 convalescent individuals. The assay is classed as cell-based, human.

The source of these data is publication PMC11604954 (Nature Communications, 2024).

In the case of YLQPRTFLL, the ELISpot response frequency is reported as ~ 44% and the “ELISpot: HLA-matched individuals responding / tested” value is on record as 11 out of 25.
